Measurements from paper PMC7901646, “Pyrrolo[2′,3′:3,4]cyclohepta[1,2-d][1,2]oxazoles, a New Class of Antimitotic Agents Active against Multiple Malignant Cell Types” (Journal of Medicinal Chemistry, 2020).

How the values were obtained:
Type in all cases: cell-based
UACC-257 = assay: NCI-60 screen; conditions: Homo sapiens, Melanoma
Outline: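 One-concentration screen (10^–5 M) across the complete panel of sixty human cancer cell lines from nine tissue origins.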

HeLa cells = assay: Mitochondrial membrane potential (JC-1); conditions: 0.1 and 0.5 μM, 24 or 48 h
Description: The mitochondrial membrane potential was measured with the lipophilic cationic dye 5,5′,6,6′ tetrachlo-1,1′,3,3′-tetraethylbenzimidazolcarbocyanine (JC-1) (Molecular Probes), as described.[73] The method is based on the ability of this fluorescent probe to enter selectively into mitochondria since it changes reversibly its color from green to red as membrane potential increases. This property is due to the reversible formation of JC-1 aggregates upon membrane polarization that causes a shift in the emitted light from 530 nm (i.e., emission of JC-1 monomeric form) to 590 nm (emission of JC-1-aggregate) when excited at 490 nm.

Mcl-1 = assay: Western blot, apoptosis proteins; conditions: HeLa, 0.1 or 0.5 μM, 24 or 48 h
Description: (§1) To study in greater detail the apoptotic process induced by 66, we evaluated the expression of the cleaved fragment of poly(ADP)ribose polymerase (PARP), a common marker of apoptosis,[66] by Western blot analysis. HeLa cells were treated with compound 66 at 0.1 or 0.5 μM for 24 or 48 h. The cleavage fragment of PARP appeared at 24 h after beginning treatment with only 0.1 μM 66. The expression of two antiapoptotic proteins, Mcl-1 and XIAP, was also studied. Mcl-1, a member of the Bcl-2 family, is highly expressed in many types of tumors and takes part in the apoptotic response to multiple stimuli. […] Similarly, expression of Xiap, a member of the family of inhibitors of apoptosis proteins, was reduced (at 24 h) and diappeared (at 48 h) after HeLa cell treatment with 66 (Figure 9). The functions of this protein are to inhibit the activity of caspase-3, caspase-7, and caspase-9 through a direct interaction with these enzymes. Following this interaction, the entire apoptotic process is inhibited.[69]
(§2) HeLa cells were incubated in the presence of the test compound and, after different times, were collected, centrifuged, and washed two times with ice cold PBS. The pellet was resuspended in lysis buffer. After the cells were lysed on ice for 30 min, lysates were centrifuged at 15 000g at 4 °C for 10 min. The protein concentration in the supernatant was determined using the BCA protein assay reagents (Pierce, Italy). Equal amounts of protein (10 μg) were resolved using sodium dodecyl sulfate–polyacrylamide gel electrophoresis (Criterion Precast, BioRad, Italy) and transferred to a PVDF Hybond-P membrane (GE Healthcare). Membranes were blocked with a bovine serum albumin solution (5% in Tween PBS 1×), and the membranes were gently rotated overnight at 4 °C in the albumin solution. Membranes were then incubated with primary antibodies against PARP cleaved fragment, cdc25c, cyclin B, p-cdc2^Tyr15, XIAP, and Mcl-1 (all from Cell Signaling) or GAPDH (Sigma-Aldrich) for 2 h at room temperature. Membranes were next incubated with peroxidase labeled secondary antibodies for 1 h. All membranes were visualized using ECL Select (GE Healthcare), and images were acquired using an Uvitec-Alliance imaging system (Uvitec, Cambridge, U.K.). To ensure equal protein loading, each membrane was stripped and reprobed with anti-GAPDH antibody. To obtain relative quantitative data, ImageJ software (NIH, USA) was used for scanning densitometry analysis of Western blots.

PARP = assay: Western blot, apoptosis proteins; conditions: HeLa, 24 h, 0.1 μM
Description: as §1, §2

XIAP = assay: Western blot, apoptosis proteins; conditions: HeLa
Description: as §1, §2

Row | Compound | GI50 (UACC-257) | percentage of cells with low Δψmt (HeLa cells) | Mcl-1 levels (Mcl-1) | cleavage fragment of PARP (PARP) | expression of Xiap (XIAP; 24 h) | expression of Xiap (XIAP; 48 h)
1 | CCOC(=O)c1cc2c(n1Cc1cccc(OC)c1)-c1oncc1CCC2 [Compound 63, Ethyl 9-(3-Methoxybenzyl)-4,5,6,9-tetrahydropyrrolo[2′,3′:3,4]cyclohepta[1,2-d][1,2]oxazole-8-carboxylate] | 7.61 µM |  |  |  |  | 
2 | CCOC(=O)c1cc2c(n1Cc1cc(OC)cc(OC)c1)-c1oncc1CCC2 [Compound 66, Ethyl 9-(3,5-Dimethoxybenzyl)-4,5,6,9-tetrahydropyrrolo[2′,3′:3,4]cyclohepta[1,2-d][1,2]oxazole-8-carboxylate] |  | significant increase | reduction | appeared | reduced | diappeared
